Test results reported in patent US8883798B2, “Pyrimidine compounds inhibiting the formation of nitric oxide and prostaglandin E2, method of production thereof and use thereof” (Ustav Organicke Chemie a Biochemie Akademie Ved CR, V.V.I., priority 2011, dated 2014).

Assays:
[1] = test system: production of nitric oxide (NO); assay: Production of nitric oxide (NO) in cultures of mouse peritoneal cells stimulated with IFN-γ plus LPS (Griess reagent); format: cell-based, mice; settings: substance 50 μmol·l^−1, IFN-g plus LPS, 24 h
Procedure: (§1) Under in vitro conditions, the effect of the pyrimidine compounds according to this invention was tested in terms of the production of nitric oxide (NO) and in terms of the production of prostaglandin E2 (PGE2) in cultures of the peritoneal cells of mice.
NO is a product of the metabolism of L-arginine, quickly changes to […], which are then measured using the Griess reagent system. Under normal conditions, the production of NO is practically zero. It only occurs after some stimulation. In these experiments, interferon-gamma (IFN-γ) and bacterial lipopolysacharide (LPS) were used as stimulators. The values of NO induced in this way fluctuated in the individual experiments in a range from 52 to 89 μmol·l^−1; for the purposes of comparison between the experiments they were considered as 100%. The production of NO after the application of the substances was expressed in percentage with respect to the control values. (The lower the value, the higher the inhibition effect of the substances on NO production.) IC50 are the concentrations of the substances reducing the production of NO by 50% with respect to the controls.
(§2) Experiments were performed on mice peritoneal cells C57BL/6 (Charles River, Germany—AnLabu).
(§3) NO production was induced using IFN-g (5000 pg/mL) plus LPS (100 pg/mL); evaluated (Griess reagent) after 24 h of the cell cultivation (2×10^6/mL). PGE2 was induced using LPS (10 ng/mL); evaluated (ELISA) following 6 h cultivation of cells (3×10^6/mL). Cell longevity was evaluated using WST-1 (tetrazolium salt), following 24 h cultivation of cells (1×10^6/mL). The values mentioned in the table represent the effects of the substances tested in a concentration of 50 μmol·l^−1.

peritoneal cells of mice = assay: Cell viability of mouse peritoneal cells (WST-1 kit); format: cell-based; settings: substance 50 μmol·l^−1, 24 h; for Cell viabilities in % of the controls: Table 3B; for Cell viability in % of the controls: Table 3A
Procedure: Cell viability was determined in the standard way using a WST-1 kit (Roche). The values of the viability of the control cells were for the purposes of comparison between experiments considered as 100%. The influence of the substances on the longevity of the cells was evaluated in percentage with respect to the control values.
as §2, §3

[2] = test system: production of prostaglandin E2 (PGE2); assay: Production of prostaglandin E2 (PGE2) in cultures of mouse peritoneal cells stimulated with LPS (ELISA kit); format: cell-based, mice; settings: for Production of prostaglandins IC50 (μmol · 1^−1) average value and range of values: Table 3B, 6 h; for Production of prostaglandins in % of the controls: Table 3A, substance 50 μmol·l^−1, 6 h
Procedure: as §1
The influence on the production of prostaglandin E2 (PGE2) in vitro caused by the activity of the pyrimidine compounds according to the submitted invention was determined in cultures of the peritoneal cells of mice using a commercial kit (R&DSystems). The concentrations of PGE2 after lipopolysacharide (LPS) stimulation reached in the individual experiments values in a range of 22 to 91 ng·ml^−1 and for the purposes of comparison between the experiments were considered as 100%. The influence of the substances on the production of PGE2 was evaluated in percentage with respect to the control values.
as §2, §3

`CCCCc1c(-c2ccc(F)cc2)nc(N)nc1-c1ccco1` [Substance 95] was tested, and the “Production of nitric oxide in % of the controls” value ([1]; Table 3B) was 61.96 ± 6.41; n = 6 % of the controls, the “Cell viabilities in % of the controls” value (peritoneal cells of mice) was 119.71 ± 4.71; n = 8 % of the controls and the “Production of prostaglandins IC50 (μmol · 1^−1) average value and range of values” (shortened to “Production of prostaglandins IC50”) [2] was 70.79 ± 11.61; n = 4 μmol · 1^−1.
`CCCCc1c(Cl)nc(N)nc1-c1ccsc1` [Substance 115] was tested, and the “Production of nitric oxide in % of the controls” value ([1]; Table 3B) was 37.43 ± 8.29; n = 6 % of the controls, the “Cell viabilities in % of the controls” value (peritoneal cells of mice) was 107.17 ± 2.03; n = 8 % of the controls and the “Production of prostaglandins IC50” value [2] was 22.90 ± 11.94; n = 4 μmol · 1^−1.
`C=CCc1c(Cl)nc(N=CN(C)C)nc1Cl` [Substance 17] was tested, and the “Production of nitric oxide in % of the controls” value ([1]; Table 3A) was 6.2 ± 0.91 % of the controls, the “Cell viability in % of the controls” value (peritoneal cells of mice) was 136.13 ± 11.32 % of the controls and the “Production of prostaglandins in % of the controls” value [2] was 15.72 ± 0.46 % of the controls.
`CCCCc1c(Cl)nc(N)nc1-c1cccc2ccccc12` [Substance 142] was tested, and the “Production of nitric oxide in % of the controls” value ([1]; Table 3B) was 43.99 ± 6.06; n = 6 % of the controls, the “Cell viabilities in % of the controls” value (peritoneal cells of mice) was 114.07 ± 8.00; n = 8 % of the controls and the “Production of prostaglandins IC50” value [2] was 9.14 ± 2.71; n = 4 μmol · 1^−1.
For `CCCCc1c(-c2ccc(F)cc2)nc(N)nc1-c1ccc(F)cc1` [Substance 70], the “Production of nitric oxide in % of the controls” value ([1]; Table 3B) was 87.03 ± 3.75; n = 4 % of the controls, the “Cell viabilities in % of the controls” value (peritoneal cells of mice) was 108.03 ± 9.80; n = 4 % of the controls and the “Production of prostaglandins IC50” value [2] was 51.70 ± 13.80; n = 2 μmol · 1^−1.
`CCCc1c(Cl)nc(NC=O)nc1Cl` [Substance 50] was tested, and the “Production of nitric oxide in % of the controls” value ([1]; Table 3A) was 3.95 ± 2.27 % of the controls, the “Cell viability in % of the controls” value (peritoneal cells of mice) was 98.59 ± 6.59 % of the controls and the “Production of prostaglandins in % of the controls” value [2] was 14.20 ± 7.00 % of the controls.
With `CCCCc1c(-c2ccc(F)cc2)nc(N)nc1-c1ccc(OC)cc1` [Substance 73] the “Production of nitric oxide in % of the controls” value ([1]; Table 3B) was 65.09 ± 4.11; n = 6 % of the controls, the “Cell viabilities in % of the controls” value (peritoneal cells of mice) was 130.12 ± 10.97; n = 12 % of the controls and the “Production of prostaglandins IC50” value [2] was 3.92 ± 1.85; n = 4 μmol · 1^−1.
`CCc1c(Cl)nc(NC=O)nc1Cl` [Substance 49] was tested, and the “Production of nitric oxide in % of the controls” value ([1]; Table 3A) was 5.76 ± 2.48 % of the controls, the “Cell viability in % of the controls” value (peritoneal cells of mice) was 111.37 ± 10.44 % of the controls and the “Production of prostaglandins in % of the controls” value [2] was 20.58 ± 2.13 % of the controls.
In the case of `CCCCc1c(-c2ccccn2)nc(N)nc1-c1cccc2ccccc12` [Substance 135], the “Production of nitric oxide in % of the controls” value ([1]; Table 3B) is reported as 18.45 ± 5.66; n = 6 % of the controls, the “Cell viabilities in % of the controls” value (peritoneal cells of mice) is reported as 64.97 ± 12.85; n = 8 % of the controls and the “Production of prostaglandins IC50” value [2] is reported as 28.69 ± 0.00; n = 2 μmol · 1^−1.
For `CCCCc1c(-c2ccc(F)cc2)nc(N)nc1-c1ccsc1` [Substance 108], the “Production of nitric oxide in % of the controls” value ([1]; Table 3B) was 64.92 ± 2.30; n = 4 % of the controls, the “Cell viabilities in % of the controls” value (peritoneal cells of mice) was 124.71 ± 15.20; n = 4 % of the controls and the “Production of prostaglandins IC50” value [2] was 47.21 ± 2.59; n = 2 μmol · 1^−1.
`CCCCc1c(-c2cccs2)nc(N)nc1-c1cc2ccccc2s1` [Substance 130] was tested, and the “Production of nitric oxide in % of the controls” value ([1]; Table 3B) was 43.43 ± 7.18; n = 10 % of the controls, the “Cell viabilities in % of the controls” value (peritoneal cells of mice) was 130.68 ± 8.17; n = 12 % of the controls and the “Production of prostaglandins IC50” value [2] was 56.31 ± 19.61; n = 8 μmol · 1^−1.
For `CCCCc1c(-c2ccccc2)nc(N)nc1-c1ccccn1` [Substance 76], the “Production of nitric oxide in % of the controls” value ([1]; Table 3B) was 45.05 ± 3.55; n = 4 % of the controls, the “Cell viabilities in % of the controls” value (peritoneal cells of mice) was 97.97 ± 5.33; n = 8 % of the controls and the “Production of prostaglandins IC50” value [2] was 42.94 ± 11.04; n = 6 μmol · 1^−1.
